This note sets out measurements from patent US8008322B2, “Substituted pyrazolopyridines, compositions containing them, method for the production thereof, and their use” (Aventis Pharma S.A., priority 2005, dated 2011).

The melting point is the temperature of the solid-liquid transition.

The target of one data set is T1, human KDR enzyme (Homo sapiens, UniProt P35968).
T1 construct: The cytoplasmic domain of the human KDR enzyme was cloned in the form of a GST fusion protein; GST; made in house; host or cells: SF21 insect cells (baculovirus, pFastBac)
The data set is described as follows: KDR substrate phosphorylation inhibition, scintillation technique. It is filed as biochemical. To be noted: GST-KDR cytoplasmic domain, substrate SH2-SH3 fragment of PLCγ, 33P-ATP, one hour at 37° C.; read-out: KDR IC 50. How it is done:
The inhibitory effect of the compounds is determined in an in vitro test of phosphorylation of substrate with the enzyme KDR via a scintillation technique (96-well plate, NEN).
The cytoplasmic domain of the human KDR enzyme was cloned in the form of a GST fusion protein in the pFastBac baculovirus expression vector.
The KDR kinase activity is measured in a 20 mM MOPS, 10 mM MgCl2, 10 mM MnCl2, 1 mM DTT, 2.5 mM EGTA, 10 mM b-glycerophosphate, pH=7.2 buffer, in the presence of 10 mM MgCl2, 100 μm Na3VO4, 1 mM NaF. 10 μl of the compound are added to 70 μL of kinase buffer containing 100 ng of KDR enzyme at 4° C. The reaction is initiated by adding 20 μL of solution containing 2 μg of substrate (SH2-SH3 fragment of PLCγ expressed in the form of a GST fusion protein), 2 μCi of γ^33P[ATP] and 2 μm of cold ATP. After incubation for one hour at 37° C., the reaction is stopped by adding 1 volume (100 μl) of 200 mM EDTA. The incubation buffer is removed, and the wells are washed three times with 300 μL of PBS. The radioactivity in each well is measured using a Top Count NXT radioactivity counter (Packard).
The background is determined by measuring the radioactivity in four different wells containing radioactive ATP and the substrate alone.
A total activity control is measured in four different wells containing all the reagents (γ^33P-[ATP], KDR and substrate PLCγ), but in the absence of compound.
The inhibition of the KDR activity with the compound of the invention is expressed as a percentage of inhibition of the control activity determined in the absence of compound.

The next data set concerns the target T2, human Tie2 (Homo sapiens, UniProt Q02763).
T2 construct: the amino acids of the intracellular domain 776-1124; made in house; host or cells: baculovirus expression system (pFastBacGT)
The data set is described as follows: Tie2 phosphorylation of PLC inhibition, FlashPlate radioactivity. To be noted: GST-Tie2 intracellular domain 776-1124, substrate GST-PLC, 33P-ATP, one hour at 37° C.; read-out: TIE2 IC 50. The format is biochemical. How it is done:
This sequence was introduced into a pFastBacGT baculovirus expression vector in the form of a GST fusion protein. The inhibitory effect of the molecules is determined in a test of phosphorylation of PLC with Tie2 in the presence of GST-Tie2 purified to about 80% homogeneity. The substrate is composed of the SH2-SH3 fragments of PLC expressed in the form of a GST fusion protein.
The kinase activity of Tie2 is measured in a MOPS 20 mM pH 7.2 buffer, containing 10 mM MgCl2, 10 mM MnCl2, 1 mM DTT, 10 mM of glycerophosphate. In a 96-well FlashPlate plate maintained on ice, a reaction mixture is deposited, composed of 70 μL of kinase buffer containing 100 ng of enzyme GST-Tie2 per well. Next, 10 μL of the test molecule diluted in DMSO to a maximum concentration of 10% are added. For a given concentration, each measurement is performed four times. […] After incubation for one hour at 37° C., the reaction is stopped by adding 1 volume (100 μl) of EDTA 200 mM. After removal of the incubation buffer, the wells are washed three times with 300 μL of PBS. The radioactivity is measured on a MicroBeta1450 Wallac.
The inhibition of the Tie2 activity is calculated and expressed as a percentage of inhibition relative to the control activity determined in the absence of compound.

A further data set has as its target T3, human FAK (Homo sapiens, UniProt Q05397).
T3 construct: The whole cDNA of human FAK, the N-terminal end of which has been labelled with histidine; made in house; host or cells: baculovirus expression system (pFastBac HTc)
The data set is described as follows: FAK autophosphorylation inhibition, time-resolved fluorescence test (HTRF). The format is biochemical. The settings on record: 15 μM ATP, 1 hour at 37° C., read-out: FAK IC 50. How it is done:
The inhibitory activity of the compounds on FAK is determined by measuring the inhibition of autophosphorylation of the enzyme using a time-resolved fluorescence test (HTRF).
The whole cDNA of human FAK, the N-terminal end of which has been labelled with histidine, was cloned in a pFastBac HTc baculovirus expression vector. The protein was expressed and purified to about 70% homogeneity.
The kinase activity is determined by incubating the enzyme (6.6 μg/mL) with different concentrations of test compound in a 50 mM Hepes pH=7.2, 10 mM MgCl2, 100 μm Na3VO4, 15 μM ATP buffer for 1 hour at 37° C. The enzymatic reaction is stopped by adding Hepes pH=7.0 buffer containing 0.4 mM KF, 133 mM EDTA, 0.1% BSA and the labelling is performed, for 1 to 2 hours at room temperature, by adding to this buffer an anti-Histidine antibody labelled with XL665 and a tyrosine phosphospecific monoclonal antibody conjugated to europium cryptate (Eu—K). The characteristics of the two fluorophores are available in G. Mathis et al., Anticancer Research, 1997, 17, pages 3011-3014. The energy transfer from the excited europium cryptate to the acceptor XL665 is proportional to the degree of autophosphorylation of FAK. The long-lasting signal specific for XL-665 is measured in a Packard Discovery plate counter. All the tests are performed in duplicate and the average of the two tests is calculated. The inhibition of the autophosphorylation activity of FAK with compounds of the invention is expressed as a percentage of inhibition relative to a control whose activity is measured in the absence of test compound. To calculate the percentage inhibition, the ratio [signal at 665 nm/signal at 620 nm] is considered.

T3 sequence (Q05397 whole entry): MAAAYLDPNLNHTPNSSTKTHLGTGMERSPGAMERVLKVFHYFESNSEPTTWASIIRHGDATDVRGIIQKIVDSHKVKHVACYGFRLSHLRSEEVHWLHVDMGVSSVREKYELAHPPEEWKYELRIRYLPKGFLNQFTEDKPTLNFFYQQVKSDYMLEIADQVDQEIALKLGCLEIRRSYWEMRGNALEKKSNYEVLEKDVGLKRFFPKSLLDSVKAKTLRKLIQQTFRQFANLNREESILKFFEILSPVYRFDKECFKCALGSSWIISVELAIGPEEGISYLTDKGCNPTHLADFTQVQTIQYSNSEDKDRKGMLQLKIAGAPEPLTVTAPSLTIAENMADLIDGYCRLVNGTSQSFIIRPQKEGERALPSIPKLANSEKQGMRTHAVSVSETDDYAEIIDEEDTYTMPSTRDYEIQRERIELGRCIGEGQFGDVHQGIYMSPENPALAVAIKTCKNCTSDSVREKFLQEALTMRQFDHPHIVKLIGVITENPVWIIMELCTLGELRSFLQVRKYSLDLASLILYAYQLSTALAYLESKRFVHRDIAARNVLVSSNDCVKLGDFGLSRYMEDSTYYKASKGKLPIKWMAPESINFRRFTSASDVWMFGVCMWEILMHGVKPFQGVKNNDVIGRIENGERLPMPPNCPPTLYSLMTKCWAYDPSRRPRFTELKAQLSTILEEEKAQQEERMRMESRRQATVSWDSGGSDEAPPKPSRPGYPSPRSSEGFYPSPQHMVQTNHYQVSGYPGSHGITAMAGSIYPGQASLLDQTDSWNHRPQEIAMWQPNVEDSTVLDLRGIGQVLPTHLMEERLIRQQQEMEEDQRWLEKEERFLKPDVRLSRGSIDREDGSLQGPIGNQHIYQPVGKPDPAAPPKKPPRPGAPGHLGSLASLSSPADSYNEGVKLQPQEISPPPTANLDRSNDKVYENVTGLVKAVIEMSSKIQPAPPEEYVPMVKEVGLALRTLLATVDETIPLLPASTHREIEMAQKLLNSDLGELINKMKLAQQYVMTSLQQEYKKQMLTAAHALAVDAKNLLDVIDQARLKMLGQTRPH
T1 sequence (P35968 786-1356 limits assumed): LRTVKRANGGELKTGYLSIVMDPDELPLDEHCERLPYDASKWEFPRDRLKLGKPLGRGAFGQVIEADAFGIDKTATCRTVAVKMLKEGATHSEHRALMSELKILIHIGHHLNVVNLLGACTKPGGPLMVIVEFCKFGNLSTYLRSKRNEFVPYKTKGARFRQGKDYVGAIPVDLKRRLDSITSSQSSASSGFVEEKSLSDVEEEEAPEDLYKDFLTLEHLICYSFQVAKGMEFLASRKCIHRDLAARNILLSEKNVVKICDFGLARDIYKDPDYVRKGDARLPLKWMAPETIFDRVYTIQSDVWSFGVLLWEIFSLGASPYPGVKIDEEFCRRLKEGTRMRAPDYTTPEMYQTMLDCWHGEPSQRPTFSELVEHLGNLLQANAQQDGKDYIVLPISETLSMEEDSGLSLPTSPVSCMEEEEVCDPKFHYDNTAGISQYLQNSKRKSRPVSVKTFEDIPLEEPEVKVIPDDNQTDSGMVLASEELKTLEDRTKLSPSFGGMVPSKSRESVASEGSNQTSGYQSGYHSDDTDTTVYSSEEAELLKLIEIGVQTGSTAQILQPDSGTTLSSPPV
T2 sequence (Q02763 776-1124): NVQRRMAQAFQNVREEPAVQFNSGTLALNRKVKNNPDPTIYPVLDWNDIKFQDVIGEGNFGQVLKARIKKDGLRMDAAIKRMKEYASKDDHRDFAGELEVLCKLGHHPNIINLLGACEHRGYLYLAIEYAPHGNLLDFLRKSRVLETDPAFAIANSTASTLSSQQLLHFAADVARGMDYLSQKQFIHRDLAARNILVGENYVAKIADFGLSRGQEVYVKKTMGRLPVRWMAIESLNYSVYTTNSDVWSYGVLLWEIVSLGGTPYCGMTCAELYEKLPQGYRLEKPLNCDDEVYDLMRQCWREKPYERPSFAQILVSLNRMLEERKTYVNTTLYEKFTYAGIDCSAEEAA

Consider `COc1ccc(C(F)(F)F)cc1NC(=O)Nc1ccc(-c2nccc3[nH]nc(N)c23)cn1` [Example 9, 1-[5-(3-Amino-1H-pyrazolo[4,3-c]pyrid-4-yl)pyrid-2-yl]-3-(2-methoxy-5-trifluoromethylphenyl)urea], for which the melting point was found to be 228 °C.
With `CCOc1ccc(C(F)(F)F)cc1NC(=O)Nc1ccc(-c2ccnc3[nH]nc(N)c23)cc1` [Example 14, 1-[4-(3-Amino-1H-pyrazolo[3,4-b]pyrid-4-yl)phenyl]-3-(2-ethoxy-5-trifluoromethylphenyl)urea], the IC50 worked out at 24 nM on human KDR enzyme and 21 nM on human Tie2.
In turn, `Nc1n[nH]c2cncc(-c3ccc(NC(=O)Nc4cc(C(F)(F)F)ccc4F)cc3)c12` [Example 7, 1-[4-(3-Amino-1H-pyrazolo[3,4-c]pyrid-4-yl)phenyl]-3-(2-fluoro-5-trifluoromethylphenyl)urea] had a melting point of 196 °C. Also, at human Tie2, the IC50 was determined as 9 nM.
The molecule `COc1ccc(C(F)(F)F)cc1NC(=O)Nc1ccc(-c2cncc3[nH]nc(N)c23)cc1` [Example 38, 1-[4-(3-Amino-1H-pyrazolo[3,4-c]pyrid-4-yl)phenyl]-3-(2-methoxy-5-trifluoromethylphenyl]urea] returned a melting point of 210 °C.
`COc1ccc(C(F)(F)F)cc1NC(=O)Nc1ccc(-c2ccnc3[nH]nc(N)c23)cc1` [Example 5, 1-[4-(3-Amino-1H-pyrazolo[3,4-b]pyrid-4-yl)phenyl]-3-(2-methoxy-5-trifluoromethylphenyl)urea] had a melting point greater than 260 °C. For the same molecule, on human FAK, the IC50 is 286 nM. On human KDR enzyme, the IC50 came out at 49 nM. In addition, the IC50 at human Tie2 was found to be 15 nM.
Regarding `Nc1n[nH]c2nccc(-c3ccc(NC(=O)Nc4cc(C(F)(F)F)ccc4F)nc3)c12` [Example 2, 1-[5-(3-Amino-1H-pyrazolo[3,4-b]pyrid-4-yl)pyrid-2-yl]-3-(2-fluoro-5-trifluoromethylphenyl)urea], the IC50 was found to be 150 nM on human FAK, 940 nM at human KDR enzyme and 23 nM on human Tie2.
On the same counts, the results for `Nc1n[nH]c2ccnc(-c3ccc(NC(=O)Nc4cc(C(F)(F)F)ccc4F)cc3)c12` [Example 3, 1-[4-(3-Amino-1H-pyrazolo[4,3-c]pyrid-4-yl)phenyl]-3-(2-fluoro-5-trifluoromethylphenyl)urea] are 73 nM, 33 nM and 5 nM.
With `Nc1n[nH]c2ccnc(-c3ccc(NC(=O)Nc4cc(F)ccc4F)cc3)c12` [Example 32, 1-[4-(3-Amino-1H-pyrazolo[4,3-c]pyrid-4-yl)phenyl]-3-(2,5-difluorophenyl)urea], the melting point worked out at 187 °C.
The same measure, in the same setting: then `COc1ccc(C(C)(C)C)cc1NC(=O)Nc1ccc(-c2nccc3[nH]nc(N)c23)cc1` [Example 29, 1-[4-(3-Amino-1H-pyrazolo[4,3-c]pyrid-4-yl)phenyl]-3-(5-tert-butyl-2-methoxyphenyl)urea], with 181 °C.
Consider `Nc1n[nH]c2nccc(-c3ccc(NC(=O)Nc4cc(C(F)(F)F)ccc4F)cc3)c12` [Example 1, 1-[4-(3-Amino-1H-pyrazolo[3,4-b]pyrid-4-yl)phenyl]-3-(2-fluoro-5-trifluoromethylphenyl)urea], for which the IC50 at human FAK was 264 nM.
`Cc1ccc(F)c(NC(=O)Nc2ccc(-c3nccc4[nH]nc(N)c34)cc2)c1` [Example 27, 1-[4-(3-Amino-1H-pyrazolo[4,3-c]pyrid-4-yl)phenyl]-3-(2-fluoro-5-methylphenyl-)urea] came in with a melting point of 195 °C.
Regarding `COc1ccc(C(F)(F)F)cc1NC(=O)Nc1ccc(-c2nccc3[nH]nc(N)c23)cc1` [Example 10, 1-[4-(3-Amino-1H-pyrazolo[4,3-c]pyrid-4-yl)phenyl]-3-(2-methoxy-5-trifluoromethylphenyl)urea], the melting point was determined as 200 °C. On human KDR enzyme, the IC50 was 60 nM. Further, the IC50 at human Tie2 amounted to 10 nM.
The molecule `Cc1ccc(F)cc1NC(=O)Nc1ccc(-c2nccc3[nH]nc(N)c23)cc1` [Example 34, 1-[4-(3-Amino-1H-pyrazolo[4,3-c]pyrid-4-yl)phenyl]-3-(5-fluoro-2-methylphenyl)urea] had a melting point greater than 265 °C.
Turning to `Nc1n[nH]c2ccnc(-c3ccc(NC(=O)Nc4cc(C(F)(F)F)ccc4F)nc3)c12` [Example 4, 1-[5-(3-Amino-1H-pyrazolo[4,3-c]pyrid-4-yl)pyrid-2-yl]-3-(2-fluoro-5-trifluoromethylphenyl)urea], the IC50 on human FAK was determined as 80 nM; on human KDR enzyme, 218 nM; on human Tie2, 4 nM.
Molecule `Nc1n[nH]c2ccnc(-c3ccc(NC(=O)Nc4ccccc4)cc3)c12` [Example 8, 1-[4-(3-Amino-1H-pyrazolo[4,3-c]pyrid-4-yl]phenyl]-3-phenylurea] showed a melting point of 188 °C.
`COc1ccc(C(F)(F)F)cc1NC(=O)Nc1ccc(-c2ccnc3[nH]nc(N)c23)cn1` [Example 6, 1-[5-(3-Amino-1H-pyrazolo[3,4-b]pyrid-4-yl)pyrid-2-yl]-3-(2-methoxy-5-trifluoromethylphenyl)urea] showed a melting point greater than 260 °C. Also, on human FAK, the IC50 is 190 nM. Also, on human KDR enzyme, the IC50 worked out at 1860 nM. Besides, the IC50 at human Tie2 turned out to be 27 nM.
Take `CC(=O)Nc1ccc(C(F)(F)F)cc1NC(=O)Nc1ccc(-c2nccc3[nH]nc(N)c23)cc1` [Example 11, N-(2-{3-[4-(3-Amino-1H-pyrazolo[4,3-c]pyrid-4-yl)phenyl]ureido}-4-trifluoromethylphenyl)acetamide]: the melting point turned out to be 182 °C.
